Data as given in PubChem BioAssay AID2060501 (Molecular Pharmacology Branch, DTP, NCI, 2025).
One block for each compound: values may come before it.

Tested on: 282377-053-R-J1-PDC complex spheroids, viability
Assay: Anticancer human tumor 282377-053-R-J1-PDC patient-derived colon adenocarcinoma cell line growth inhibition [GQUAD]
Conditions: for IC50: curve of first compound; for viability, T/C: stronger effect = lower value
In short: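 Viability of tumor cells grown as complex spheroids with endothelial and stromal cells, exposed to drug combinations. Top concentration at or near clinical Cmax (else 10 microM), diluted in half-log increments.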

[1] = second compound 0.0316 µM, first compound 0.0316 µM
[2] = second compound 0.0316 µM, first compound 0.1 µM
[3] = second compound 0.0316 µM, first compound 0.316 µM
[4] = second compound 0.0316 µM, first compound 1 µM
[5] = second compound 0.0316 µM, first compound 3.16 µM
[6] = second compound 0.0316 µM, first compound 10 µM
[7] = second compound 0.1 µM, first compound 0.0316 µM
[8] = second compound 0.1 µM, first compound 0.1 µM
[9] = second compound 0.1 µM, first compound 0.316 µM
[10] = second compound 0.1 µM, first compound 1 µM
[11] = second compound 0.1 µM, first compound 3.16 µM
[12] = second compound 0.1 µM, first compound 10 µM
[13] = second compound 0.316 µM, first compound 0.0316 µM
[14] = second compound 0.316 µM, first compound 0.1 µM
[15] = second compound 0.316 µM, first compound 0.316 µM
[16] = second compound 0.316 µM, first compound 1 µM
[17] = second compound 0.316 µM, first compound 3.16 µM
[18] = second compound 0.316 µM, first compound 10 µM
[19] = second compound 1 µM, first compound 0.0316 µM
[20] = second compound 1 µM, first compound 0.1 µM
[21] = second compound 1 µM, first compound 0.316 µM
[22] = second compound 1 µM, first compound 1 µM
[23] = second compound 1 µM, first compound 3.16 µM
[24] = second compound 1 µM, first compound 10 µM
[25] = second compound 3.16 µM, first compound 0.0316 µM
[26] = second compound 3.16 µM, first compound 0.1 µM
[27] = second compound 3.16 µM, first compound 0.316 µM
[28] = second compound 3.16 µM, first compound 1 µM
[29] = second compound 3.16 µM, first compound 3.16 µM
[30] = second compound 3.16 µM, first compound 10 µM
[31] = second compound 10 µM, first compound 0.0316 µM
[32] = second compound 10 µM, first compound 0.1 µM
[33] = second compound 10 µM, first compound 0.316 µM
[34] = second compound 10 µM, first compound 1 µM
[35] = second compound 10 µM, first compound 3.16 µM
[36] = second compound 10 µM, first compound 10 µM
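Further: spheroids exposed to compounds for 7 days before readout.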
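Wherever viability, T/C is given: percent of vehicle DMSO control viability with 100% = untreated-like growth.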

IC50 (second compound 0.0316 µM): 1.59 µM
IC50 (second compound 0.1 µM): 1.47 µM
IC50 (second compound 0.316 µM): 0.731 µM
IC50 (second compound 1 µM): 0.651 µM
IC50 (second compound 3.16 µM): 0.295 µM
IC50 (second compound 10 µM): < 0.0316 µM
SMILES: C=CCn1c(=O)c2cnc(Nc3ccc(N4CCN(C)CC4)cc3)nc2n1-c1cccc(C(C)(C)O)n1 + Cc1cnc(CNC(=O)c2c(=O)c3ccc(N4CCCN(C)CC4)nc3n3c2sc2ccccc23)cn1
viability, T/C [1]: 109%
viability, T/C [2]: 102%
viability, T/C [3]: 107%
viability, T/C [4]: 67.7%
viability, T/C [5]: 24.1%
viability, T/C [6]: 15.1%
viability, T/C [7]: 115%
viability, T/C [8]: 115%
viability, T/C [9]: 99.6%
viability, T/C [10]: 62.8%
viability, T/C [11]: 24.6%
viability, T/C [12]: 11.7%
viability, T/C [13]: 102%
viability, T/C [14]: 97.8%
viability, T/C [15]: 73.4%
viability, T/C [16]: 40.4%
viability, T/C [17]: 22.3%
viability, T/C [18]: 12.5%
viability, T/C [19]: 75.5%
viability, T/C [20]: 75.8%
viability, T/C [21]: 65.1%
viability, T/C [22]: 40.2%
viability, T/C [23]: 22.6%
viability, T/C [24]: 13.6%
viability, T/C [25]: 55.7%
viability, T/C [26]: 60.1%
viability, T/C [27]: 45.4%
viability, T/C [28]: 42%
viability, T/C [29]: 26.2%
viability, T/C [30]: 12.1%
viability, T/C [31]: 44.4%
viability, T/C [32]: 48.5%
viability, T/C [33]: 43.1%
viability, T/C [34]: 36.6%
viability, T/C [35]: 1.31%
viability, T/C [36]: 0.34%

IC50 (second compound 0.0316 µM): 1.68 µM
IC50 (second compound 0.1 µM): 0.91 µM
IC50 (second compound 0.316 µM): 1.33 µM
IC50 (second compound 1 µM): 0.361 µM
IC50 (second compound 3.16 µM): < 0.0316 µM
IC50 (second compound 10 µM): < 0.0316 µM
SMILES: CC(C)(O)C1CCC(Nc2ccc3ncc(-c4cccc(C(F)(F)F)c4)n3n2)CC1 (stereo not given) + Cc1cnc(CNC(=O)c2c(=O)c3ccc(N4CCCN(C)CC4)nc3n3c2sc2ccccc23)cn1
viability, T/C [1]: 96.9%
viability, T/C [2]: 83.3%
viability, T/C [3]: 93.2%
viability, T/C [4]: 78.4%
viability, T/C [5]: 12%
viability, T/C [6]: 18.7%
viability, T/C [7]: 113%
viability, T/C [8]: 79.1%
viability, T/C [9]: 68.8%
viability, T/C [10]: 62.5%
viability, T/C [11]: 16%
viability, T/C [12]: 20.9%
viability, T/C [13]: 77.9%
viability, T/C [14]: 82.2%
viability, T/C [15]: 77.9%
viability, T/C [16]: 57.9%
viability, T/C [17]: 22.4%
viability, T/C [18]: 29.7%
viability, T/C [19]: 62.1%
viability, T/C [20]: 45.2%
viability, T/C [21]: 46.5%
viability, T/C [22]: 40.5%
viability, T/C [23]: 7.32%
viability, T/C [24]: 18.9%
viability, T/C [25]: 45%
viability, T/C [26]: 45%
viability, T/C [27]: 42%
viability, T/C [28]: 34.3%
viability, T/C [29]: 0.13%
viability, T/C [30]: 0.15%
viability, T/C [31]: 34.2%
viability, T/C [32]: 21.1%
viability, T/C [33]: 12.3%
viability, T/C [34]: 0.24%
viability, T/C [35]: 0.89%
viability, T/C [36]: 0.2%

IC50 (second compound 0.0316 µM): > 10 µM
IC50 (second compound 0.1 µM): > 10 µM
IC50 (second compound 0.316 µM): > 10 µM
IC50 (second compound 1 µM): > 10 µM
IC50 (second compound 3.16 µM): 0.865 µM
IC50 (second compound 10 µM): < 0.0316 µM
SMILES: COc1ncnc(C2CC2)c1-c1ncc2cnn(Cc3ccc(-c4nc(C(F)(F)F)cn4C(C)C)cc3)c2n1 + Cc1cnc(CNC(=O)c2c(=O)c3ccc(N4CCCN(C)CC4)nc3n3c2sc2ccccc23)cn1
viability, T/C [1]: 108%
viability, T/C [2]: 107%
viability, T/C [3]: 119%
viability, T/C [4]: 92.6%
viability, T/C [5]: 123%
viability, T/C [6]: 95.3%
viability, T/C [7]: 121%
viability, T/C [8]: 96.2%
viability, T/C [9]: 94.4%
viability, T/C [10]: 100%
viability, T/C [11]: 125%
viability, T/C [12]: 93.5%
viability, T/C [13]: 105%
viability, T/C [14]: 78.3%
viability, T/C [15]: 71.1%
viability, T/C [16]: 76.2%
viability, T/C [17]: 76.5%
viability, T/C [18]: 82.3%
viability, T/C [19]: 60.6%
viability, T/C [20]: 54.8%
viability, T/C [21]: 55.8%
viability, T/C [22]: 52.8%
viability, T/C [23]: 57.9%
viability, T/C [24]: 55.9%
viability, T/C [25]: 53.3%
viability, T/C [26]: 49.2%
viability, T/C [27]: 49.2%
viability, T/C [28]: 49.7%
viability, T/C [29]: 52.8%
viability, T/C [30]: 47.1%
viability, T/C [31]: 41.1%
viability, T/C [32]: 45.2%
viability, T/C [33]: 46.5%
viability, T/C [34]: 46.6%
viability, T/C [35]: 50.3%
viability, T/C [36]: 35.6%

IC50 (second compound 0.0316 µM): 0.14 µM
IC50 (second compound 0.1 µM): 0.122 µM
IC50 (second compound 0.316 µM): 0.0637 µM
IC50 (second compound 1 µM): 0.0177 µM
IC50 (second compound 3.16 µM): < 0.000999 µM
IC50 (second compound 10 µM): < 0.000999 µM
SMILES: Cc1[nH]c2ccccc2c1CCNCc1ccc(/C=C/C(=O)NO)cc1 + Cc1cnc(CNC(=O)c2c(=O)c3ccc(N4CCCN(C)CC4)nc3n3c2sc2ccccc23)cn1
viability, T/C (second compound 0.0316 µM, first compound 0.000999 µM): 86.4%
viability, T/C (second compound 0.0316 µM, first compound 0.00316 µM): 87.7%
viability, T/C (second compound 0.0316 µM, first compound 0.00999 µM): 129%
viability, T/C [1]: 95.2%
viability, T/C (second compound 0.0316 µM, first compound 0.0999 µM): 67.7%
viability, T/C [3]: 7.24%
viability, T/C (second compound 0.1 µM, first compound 0.000999 µM): 107%
viability, T/C (second compound 0.1 µM, first compound 0.00316 µM): 86.6%
viability, T/C (second compound 0.1 µM, first compound 0.00999 µM): 106%
viability, T/C [7]: 84.3%
viability, T/C (second compound 0.1 µM, first compound 0.0999 µM): 60.7%
viability, T/C [9]: 1.3%
viability, T/C (second compound 0.316 µM, first compound 0.000999 µM): 88.4%
viability, T/C (second compound 0.316 µM, first compound 0.00316 µM): 75.8%
viability, T/C (second compound 0.316 µM, first compound 0.00999 µM): 86.2%
viability, T/C [13]: 67.8%
viability, T/C (second compound 0.316 µM, first compound 0.0999 µM): 37.9%
viability, T/C [15]: 2.14%
viability, T/C (second compound 1 µM, first compound 0.000999 µM): 62.9%
viability, T/C (second compound 1 µM, first compound 0.00316 µM): 53.8%
viability, T/C (second compound 1 µM, first compound 0.00999 µM): 56.3%
viability, T/C [19]: 43%
viability, T/C (second compound 1 µM, first compound 0.0999 µM): 33%
viability, T/C [21]: 0.07%
viability, T/C (second compound 3.16 µM, first compound 0.000999 µM): 51.1%
viability, T/C (second compound 3.16 µM, first compound 0.00316 µM): 48%
viability, T/C (second compound 3.16 µM, first compound 0.00999 µM): 38.5%
viability, T/C [25]: 40.5%
viability, T/C (second compound 3.16 µM, first compound 0.0999 µM): 19.6%
viability, T/C [27]: 0.2%
viability, T/C (second compound 10 µM, first compound 0.000999 µM): 33.8%
viability, T/C (second compound 10 µM, first compound 0.00316 µM): 32.9%
viability, T/C (second compound 10 µM, first compound 0.00999 µM): 47%
viability, T/C [31]: 37%
viability, T/C (second compound 10 µM, first compound 0.0999 µM): 0.26%
viability, T/C [33]: 0.36%

IC50 (second compound 0.0316 µM): 0.36 µM
IC50 (second compound 0.1 µM): 0.406 µM
IC50 (second compound 0.316 µM): 0.189 µM
IC50 (second compound 1 µM): 0.0823 µM
IC50 (second compound 3.16 µM): < 0.0316 µM
IC50 (second compound 10 µM): < 0.0316 µM
SMILES: O=C(NO)c1cnc(N2CCN(S(=O)(=O)c3ccc4ccccc4c3)CC2)nc1 + Cc1cnc(CNC(=O)c2c(=O)c3ccc(N4CCCN(C)CC4)nc3n3c2sc2ccccc23)cn1
viability, T/C [1]: 98.6%
viability, T/C [2]: 78.5%
viability, T/C [3]: 57.9%
viability, T/C [4]: 2.29%
viability, T/C [5]: 0.07%
viability, T/C [6]: 0.11%
viability, T/C [7]: 99.3%
viability, T/C [8]: 88%
viability, T/C [9]: 63.5%
viability, T/C [10]: 1.62%
viability, T/C [11]: 0.05%
viability, T/C [12]: 0.11%
viability, T/C [13]: 84.3%
viability, T/C [14]: 64.7%
viability, T/C [15]: 39.2%
viability, T/C [16]: 1.28%
viability, T/C [17]: 0.04%
viability, T/C [18]: 0.08%
viability, T/C [19]: 55.3%
viability, T/C [20]: 46.6%
viability, T/C [21]: 27.1%
viability, T/C [22]: 0.1%
viability, T/C [23]: 0.05%
viability, T/C [24]: 0.09%
viability, T/C [25]: 41%
viability, T/C [26]: 53.3%
viability, T/C [27]: 22.9%
viability, T/C [28]: 0.12%
viability, T/C [29]: 0.1%
viability, T/C [30]: 0.15%
viability, T/C [31]: 36.9%
viability, T/C [32]: 9.96%
viability, T/C [33]: 0.28%
viability, T/C [34]: 0.24%
viability, T/C [35]: 0.17%
viability, T/C [36]: 0.2%
